Test [1] in a line: Inhibition of oxytocin receptor in conscious chicken assessed as inhibition of oxytocin-induced vasodepressor response. Also on record: species or system Gallus gallus.
The species entered for test [2] is Rattus norvegicus. Description: Antidiuretic activity in rat at 0.1 mg. Format: functional, Urine.
For test [3], the species on record is Rattus norvegicus. Description: Effect on pressor response in rat at 0.1 mg. Format: functional.
Test [4] addresses T1, Oxytocin receptor (Rattus norvegicus) (UniProt P70536).
T1 sequence (whole entry): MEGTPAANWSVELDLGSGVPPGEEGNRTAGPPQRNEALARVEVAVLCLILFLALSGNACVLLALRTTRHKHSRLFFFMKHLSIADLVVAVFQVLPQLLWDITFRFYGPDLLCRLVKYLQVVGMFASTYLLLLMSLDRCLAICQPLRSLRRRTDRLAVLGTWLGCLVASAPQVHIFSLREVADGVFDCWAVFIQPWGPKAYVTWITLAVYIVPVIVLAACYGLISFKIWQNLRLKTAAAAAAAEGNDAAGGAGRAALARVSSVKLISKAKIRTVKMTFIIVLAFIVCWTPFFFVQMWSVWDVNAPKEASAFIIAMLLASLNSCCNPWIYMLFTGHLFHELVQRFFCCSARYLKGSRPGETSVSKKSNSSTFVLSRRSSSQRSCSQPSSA
Description: Binding affinity to rat oxytocin receptor.

For test [5], the target named is T1, Oxytocin receptor (Rattus norvegicus). Put plainly: Intrinsic activity at rat oxytocin receptor relative to oxytocin.
Test [6] is filed under the species Rattus norvegicus. Description: Uterotonic potency in rat. In kind it is functional.

Activity calls are given as the source filed them. No cut-off for these calls is given here. Positions of bridges follow the written chain, without caps; N, C: chain ends. Non-standard residues stand in square brackets, D forms with d. Residues, ends and D or L forms follow the SMILES beside them. 2Thi = N[C@@H](Cc1cccs1)C(=O)O

For `CC[C@H](C)[C@@H]1NC(=O)[C@H](Cc2ccc(O)cc2)NC(=O)[C@@H](N)CSSC[C@@H](C(=O)N2CCC[C@H]2C(=O)N[C@@H](CC(C)C)C(=O)NCC(N)=O)NC(=O)[C@H](CC(N)=O)NC(=O)[C@H](Cc2cccs2)NC1=O` (H-CYI[2Thi]NCPLG-NH2; disulfide 1-6), in test [1], the pA2 (as a rule, a measure of antagonist potency on a negative log scale) stood at 7.44. Besides, the Activity is reported as less than 0.05 U/mg in the test listed under Rattus norvegicus [2], less than 0.05 U/mg in the test listed under Rattus norvegicus [3] and 0.51 U/mg in the test listed under Rattus norvegicus [6]. The outcome in test [4] was inactive. The Intrinsic activity in test [5] was found to be 64%.
